Values of other authors in patent US8680084B2, “Oral contraceptives to prevent pregnancy and diminish premenstrual symptomatology” (Teva Women's Health, Inc., priority 2001, dated 2014).

Experiments:
[1] = for amount roughly equivalent to 1 mg of levonorgestrel: progestin potency relative to levonorgestrel; for amount roughly equivalent to 30 μg of ethinyl estradiol: estrogen potency relative to ethinyl estradiol
[2] = tested on: PMDD; conditions: daily dose of either 20 mg or 60 mg; randomized, placebo-controlled trials

Compound | amount roughly equivalent to 1 mg of levonorgestrel [1] | also measured
C#C[C@]1(O)CC[C@H]2[C@@H]3CCC4=CC(=O)CC[C@@H]4[C@H]3C(=C)C[C@@]21CC [3-ketodesogestrel] | ~1 mg | –
C[C@]12CC[C@@H]3c4ccc(O)cc4CC[C@H]3[C@@H]1CC[C@@H]2O [17β-estradiol] | – | amount roughly equivalent to 30 μg of ethinyl estradiol [1]: ~2 mg
CNCCC(Oc1ccc(C(F)(F)F)cc1)c1ccccc1 (stereo not shown) [Fluoxetine, fluoxetine] | – | reducing symptoms of PMDD versus placebo [2]: superior to placebo
C#C[C@]1(O)CC[C@H]2[C@@H]3CCC4=CCCC[C@@H]4[C@H]3C(=C)C[C@@]21CC [desogestrel] | ~1 mg | –
C#C[C@]1(O)C=C[C@H]2[C@@H]3CCC4=CC(=O)CC[C@@H]4[C@H]3CC[C@@]21CC [gestodene] | about 0.7 mg | –
C#C[C@]1(O)CC[C@H]2[C@@H]3CCc4cc(OC)ccc4[C@H]3CC[C@@]21C [mestranol] | – | amount roughly equivalent to 30 μg of ethinyl estradiol [1]: ~0.06 mg
C#C[C@]1(OC(C)=O)CC[C@H]2[C@@H]3CCC4=CC(=O)CC[C@@H]4[C@H]3CC[C@@]21C [norethindrone acetate] | about 3.5 mg | –
